This is an account of results in patent US11033029B2, “Pyrazole amide compound and use thereof” (Shenyang Sinochem Agrochemicals R&D Co., Ltd., priority 2013, dated 2021).

Assay [1] deals with cucumber downy mildew (Pseudoperonospora cubensis (Berk.et Curt.) Rostov). In words: Protective effect against cucumber downy mildew on potted plants. In kind it is in vivo. Conditions: 400 ppm, protectant activity, parallel test. The protocol:
(§1) Fungicidal activity of the compounds in the present invention against many kinds diseases were carried out. The procedure of fungicidal activity determination is as follows:
(§2) The fungicidal activity was tested in vivo manner on the potted plants. The test compounds of the present invention were dissolved in proper solvent (choosing the solvent according their dissolving ability to the compounds, the solvents could be acetone, methanol or N,N-dimethylformide, etc. The volume ratio between solvent and liquid sprayed was equal to or less than 0.05) and dilute with water contain 0.1% Tween 80 to given concentrations. Compounds of present invention was sprayed onto the leaves of seedling according to the designed concentration. Meanwhile, water was set as the blank control, three replicates were set for each treatment, the spore suspension were inoculated on the second day after treatment, then the plants were placed in an artificial climate chamber (temperature: day 25° C., night 20° C., relative humidity 95 to 100%). 24 hours later, the plants were moved to green house to cultivated. The plants which not need to control humidity was inoculated spore suspension in green house and cultivated in green house directly. The results were investigated after the plants were fully infected relative to the blank control (usually one week). The test results grading 100-0 refers to the <A Manual of Assessment Keys for Plant Diseases> which edited by American Phytopathological Society. “100” refer to no infection and “0” refer to the most serious infection
Protective effect against cucumber downy mildew (Pseudoperonospora cubensis (Berk.et Curt.) Rostov)
According the test method described above, parallel test were carried out between compounds 2 and 11 of present invention and the known compounds KC1, KC2, KC3 and KC4 (they are the compounds 7g, 7f and 7a in Chinese Journal of Pesticide Science, 2011, 13(6): 576-580 and compound of 11 in CN1646494A, respectively).

Assay [2] deals with corn rust (Puccinia sorghi Schw). In words: Protective effect against corn rust on potted plants. In kind it is in vivo. The note with it: protectant activity, parallel test. The protocol:
as §1, §2
Protective effect against corn rust (Puccinia sorghi Schw):
According the test method described above, parallel test were carried out between compounds 1, 3, 7, 9, 11 and 21 of present invention and the known compounds KC1, KC2, KC3 and KC4.

Regarding `Cn1cc(C(=O)Nc2ccccc2)c(C(F)F)n1` [KC1], the “Control effect against cucumber downy mildew (%)” value (“Control effect … (%)” below) in assay [1] was 0%. Moreover, in assay [2], the pest or weed control (in general, the degree to which the test organism was suppressed or injured, in per cent) at 6.25 ppm came to 0% and the pest or weed control at 25 ppm is 60%.

Regarding `C=C(C)Cc1c(NC(=O)c2cn(C)nc2C(F)F)cccc1OC(C)C` [Compound 21], in assay [2], the pest or weed control at 6.25 ppm is 90% and the pest or weed control at 25 ppm is 100%.

As for `CC(C)Oc1cccc(NC(=O)c2cn(C)nc2C(F)F)c1` [Compound 1], in assay [2], the pest or weed control at 6.25 ppm is 100% and the pest or weed control at 25 ppm turned out to be 100%.

Regarding `CCC(CC)Oc1cccc(NC(=O)c2cn(C)nc2C(F)F)c1C` [Compound 11], the “Control effect … (%)” value in assay [1] amounted to 90%. Further, in assay [2], the pest or weed control at 6.25 ppm was 90% and the pest or weed control at 25 ppm came out at 100%.

With `Cc1c(F)cccc1NC(=O)c1cn(C)nc1C(F)F` [KC3], the “Control effect … (%)” value in assay [1] is recorded as 0%. In assay [2], this compound registered a pest or weed control at 6.25 ppm of 20% and a pest or weed control at 25 ppm of 30%.

In assay [2], `CCCC(C)Oc1cccc(NC(=O)c2cn(C)nc2C(F)F)c1` (stereo not drawn) [Compound 3] registered a pest or weed control at 6.25 ppm of 95% and a pest or weed control at 25 ppm of 100%.

Regarding `Cn1cc(C(=O)Nc2ccc(F)cc2-c2ccc(Cl)c(Cl)c2)c(C(F)F)n1` [KC4, bixafen], the “Control effect … (%)” value in assay [1] was determined as 0%. In assay [2], this compound displayed a pest or weed control at 6.25 ppm of 0% and a pest or weed control at 25 ppm of 50%.

`Cc1ccccc1NC(=O)c1cn(C)nc1C(F)F` [KC2]: the “Control effect … (%)” value in assay [1] came out at 0%. In assay [2], this compound gave a pest or weed control at 6.25 ppm of 0% and a pest or weed control at 25 ppm of 0%.
